This is an account of results in patent US20070219224A1, “Compositions and Methods Relating to Pyrimidine Synthesis Inhibitors” (UAB RESEARCH FOUNDATION, THE, priority 2004, published 2007).

Data set [1] relates to IFN-α, IL-1β, KC, TNF-α in BALF. In words: Measurement of proinflammatory cytokines in BALF (ELISA). The format is in vivo, BALB/c mice. The note with it: RSV-infected mice, d2. On the procedure: (§1) Preparation of viral inocula and infection of mice. Preparation of viral stocks and intranasal infection of eight to twelve week-old pathogen-free BALB/c mice of either sex with RSV strain A2 (10^6 PFU in 100 μl) were performed as described in Davis et al., “Nucleotide-mediated inhibition of alveolar fluid clearance in BALB/c mice after respiratory syncytial virus infection,” Am. J. Physiol. Lung Cell Mol. Physiol. 286:L112-L120. (2004). Data for each experimental group was derived from a minimum of 2 independent infections.
Bronchoalveolar lavage. Bronchoalveolar lavage fluid (BALF) was collected as previously described in Davis et al., (2004), using 1 ml of sterile normal saline for cytokine ELISAs, or 0.3 ml of sterile saline for nucleotide assays. Lavagates were centrifuged to remove cells and supernatants stored at −80° C.
Systemic inhibition of de novo pyrimidine and purine synthesis. Leflunomide (5-methylisoxazole-4-[4-trifluoromethyl]carboxanilide, 35 mg/kg in distilled water containing 1% methylcellulose) was administered once daily by oral gavage in a volume of 300 μl/mouse for 8 days prior to infection, then throughout the infection period. Vehicle controls were gavaged with an equivalent volume of 1% methylcellulose in distilled water. […].
Measurement of proinflammatory cytokines in BALF. Cytokine levels were determined using Quantikine M ELISA kits (R & D Systems), in accordance with manufacturer's instructions.

Data set [2] has as its system RSV-infected BALB/c mice. In words: Alveolar fluid clearance (AFC) in RSV-infected mice at day 2 p.i. The format is in vivo. The note with it: for effect on RSV-mediated inhibition of AFC at day 2 p.i. (in words): added to the AFC instillate. On the procedure: Preparation of viral inocula and infection of mice. […] J. Physiol. Lung Cell Mol. Physiol. […] Data for each experimental group was derived from a minimum of 2 independent infections.
Systemic inhibition of de novo pyrimidine and purine synthesis. Leflunomide (5-methylisoxazole-4-[4-trifluoromethyl]carboxanilide, 35 mg/kg in distilled water containing 1% methylcellulose) was administered once daily by oral gavage in a volume of 300 μl/mouse for 8 days prior to infection, then throughout the infection period. Vehicle controls were gavaged with an equivalent volume of 1% methylcellulose in distilled water.
To systemically block de novo pyrimidine synthesis, mice were gavaged once daily for 8 days with […] of the dihydro-orotate reductase (DHOR) inhibitor leflunomide ([…] suspended in 1% methylcellulose) or vehicle prior to infection, then at 0 and 24 hours p.i. AFC studies were performed at 48 hours p.i., with no additions to the AFC instillate.
(§2) AFC studies were performed on anesthetized, ventilated BALB/c mice with normal body temperature and blood gases, over a 30 minute period after intratracheal instillation of 0.3 ml of isosmolar NaCl containing 5% fatty acid-free BSA. The number of mice analyzed per group is listed in the relevant bar of each graph.

Data set [3] is classed as in vivo. As to the method:
as §1
(§3) Systemic inhibition of de novo pyrimidine and purine synthesis. Leflunomide (5-methylisoxazole-4-[4-trifluoromethyl]carboxanilide, 35 mg/kg in distilled water containing 1% methylcellulose) was administered once daily by oral gavage in a volume of 300 μl/mouse for 8 days prior to infection, then throughout the infection period. Vehicle controls were gavaged with an equivalent volume of 1% methylcellulose in distilled water. […]

Data set [4] relates to RSV-infected BALB/c mice. In words: Lung water content (wet:dry weight ratio) after RSV infection. The format is in vivo. On the procedure: as §1, §3
The subject of data set [5] is RSV strain A2. Briefly: RSV replication in mouse lungs. It counts as in vivo, Respiratory syncytial virus. The note with it: RSV-infected mice, day 2 p.i.; systemic treatment. On the procedure: as §1, §3
Data set [6] deals with uninfected BALB/c mice. Briefly: Alveolar fluid clearance (AFC) in uninfected or mock-infected mice. It counts as in vivo. The note with it: uninfected mice. As to the method: Systemic inhibition of de novo pyrimidine and purine synthesis. […] Vehicle controls were gavaged with an equivalent volume of 1% methylcellulose in distilled water. Uridine (1 g/kg in 0.9% NaCl) was administered by i.p. injection every 12 hours in a volume of 100 μl (8). […]
as §2

Where [7] appears, read: RSV-infected mice, day 2 p.i., final concentration 25 μM (Table 6).

Entries after “also recorded” stand apart in the source; their conditions may differ. Marks after values point to notes of the source that are not given here.

Take `Sc1ncnc2nc[nH]c12` [6-MP, 6-mercaptopurine]: the “BALF proinflammatory cytokine levels (IFN-α, IL-1β, KC, TNF-α) (in words)” value in data set [1] is given as “comparable decline”. Besides, in data set [1] (systemic treatment), the “IFN-α, mean cytokine concentration in BALF ± SE” value was 105 ± 14 pg/mL; the “IL-1β, mean cytokine concentration in BALF ± SE” value was 9 ± 3 pg/mL; the “KC, mean cytokine concentration in BALF ± SE” value was 329 ± 63 pg/mL; the “TNF-α, mean cytokine concentration in BALF ± SE” value is reported as 0*** pg/ml. Besides, the “AFC30BASAL (mean % basal AFC after 30 minutes ± SE)” value in data set [2] (setting [7]) is given as 26.31 ± 1.85 %. For the same molecule, in data set [2], the “effect on RSV-mediated inhibition of AFC at day 2 p.i. (in words)” value is reported as “only a minor effect”. For the same molecule, in data set [2] (listed as 6-mercaptopurine), the “effect on RSV-mediated inhibition of AFC at day 2 p.i. (in words)” value is “not and only a small blocking effect”. The “effect on RSV-mediated inhibition of AFC at d2 (in words)” value in data set [2] (systemic treatment (leflunomide oral gavage; uridine, 6-MP i.p.)) is recorded as “no effect on AFC”. Besides, the tolerance to anesthesia result in data set [3] (6-MP 35 mg/kg i.p. every 24 hours) is given as “poor tolerance to anesthesia (resulting in sporadic deaths)”. In addition, the “body weight loss after RSV infection” value in data set [3] (D1 and d2 p.i., versus untreated RSV-infected mice) is on record as “significant increase in body weight loss”. Besides, the “body weight during the pretreatment (preinfection) period” value in data set [3] (before RSV infection, leflunomide 8 days, 6-MP 5 days) is listed as “significant loss of body weight”. Further, in data set [4] (day 2, systemic treatment), the “lung water content (wet:dry weight ratio) (in words)” value is recorded as “did not alter lung wet:dry weight ratios”. The “virus replication in lung tissue at d2” value in data set [5] is on record as “no significant inhibitory effect”.
`C/C(O)=C(\C#N)C(=O)Nc1ccc(C(F)(F)F)cc1` [A77-1726]: the “AFC30BASAL (mean % basal AFC after 30 minutes ± SE)” value in data set [6] (50 μM in 100 μl normal saline intranasally 24 hours prior to AFC assay) stood at 23.19 ± 5.95 %; in data set [2] (RSV day 2 p.i., 50 μM in 100 μl normal saline intranasally 24 hours after infection), 32.68 ± 1.1 %; in data set [2] (setting [7]), 34.06 ± 1.88 %. The “effect on RSV-induced inhibition of AFC, intranasal treatment (in words)” value in data set [2] (50 μM in 100 μl normal saline intranasally at 24 hours p.i.) is reported as “completely blocked”. The “effect on RSV-mediated inhibition of AFC at day 2 p.i. (in words)” value in data set [2] is “prevented; also recorded: reverses RSV-mediated inhibition of AFC”. In data set [4] (A77-1726 intranasal), the “lung wet:dry weight ratios, intranasal treatment” value is listed as “normalization of lung wet:dry weight ratios”.
Regarding `N=C(N)NC(=O)c1nc(Cl)c(N)nc1N` [AMIL, amiloride], the “AFC (mean % AFC ± SE) with amiloride in instillate” value worked out at 14.65 ± 1.59 % in data set [6] (1.5 mM amiloride added to the instillate) and 22.82 ± 1.92% in data set [2] (RSV-infected mice, d2, 1.5 mM amiloride added to the instillate).
`CCN(CC)CCOc1ccc(C(=C(Cl)c2ccccc2)c2ccccc2)cc1` [Clomiphene]: the “AFC (mean % AFC ± SE)” value in data set [2] (RSV-infected mice, d2, inhibitor 20 μM in AFC instillate (Table 5)) was 31.05 ± 2.65 %. Also, the “AFC30BASAL (mean % basal AFC after 30 minutes ± SE)” value in data set [2] (RSV-infected mice, day 2 p.i., final concentration 20 μM (Table 6)) is recorded as 31.0 ± 2.67 %. Besides, the “effect on RSV-mediated inhibition of AFC at day 2 p.i. (in words)” value in data set [2] was “blocked”.
Regarding `CNCCC(Oc1ccc(C(F)(F)F)cc1)c1ccccc1` (centres unmarked) [Fluoxetine], the “AFC (mean % AFC ± SE)” value in data set [2] (RSV-infected mice, d2, inhibitor 10 μM in AFC instillate (Table 5)) was 34.54 ± 0.79 %. For the same molecule, the “AFC30BASAL (mean % basal AFC after 30 minutes ± SE)” value in data set [2] (RSV-infected mice, day 2 p.i., final concentration 10 μM (Table 6)) was 34.54 ± 0.79 %. Moreover, the “effect on RSV-mediated inhibition of AFC at day 2 p.i. (in words)” value in data set [2] was “blocked RSV-mediated inhibition of AFC”.
Take `O=c1c(-c2ccc(O)cc2)coc2cc(O)cc(O)c12` [Genistein]: the “AFC30BASAL (mean % basal AFC after 30 minutes ± SE)” value in data set [2] (setting [7]) was 20.39 ± 0.73%. Moreover, the “effect on RSV-mediated inhibition of AFC at day 2 p.i. (in words)” value in data set [2] is given as “not recapitulated; also recorded: not replicated”.
In the case of `COc1ccc(Cl)cc1C(=O)NCCc1ccc(S(=O)(=O)NC(=O)NC2CCCCC2)cc1` [Glibenclamide], the “AFC (mean % AFC ± SE)” value in data set [2] (RSV-infected mice, d2, inhibitor 100 μM in AFC instillate (Table 5)) is 24.24 ± 4.24%. Also, the “effect on RSV-mediated inhibition of AFC at day 2 p.i. (in words)” value in data set [2] was “unaffected”.
In the case of `COc1c(C)c2c(c(O)c1C/C=C(\C)CCC(=O)O)C(=O)OC2` [MPA, mycophenolic acid], the “AFC30BASAL (mean % basal AFC after 30 minutes ± SE)” value in data set [2] (setting [7]) is reported as 26.2 ± 1.7 %. The “effect on RSV-mediated inhibition of AFC at day 2 p.i. (in words)” value was “only a minor effect” in data set [2]; “not and only a small blocking effect” in data set [2] (listed as mycophenolic acid).
